{
  "source": "paper PMC7852560",
  "about": "(Neuropsychopharmacology, 2020)",
  "key": {"GluN1KD mice": {"tested_on": "GluN1KD mice", "assay": "Pre-pulse inhibition in GluN1KD mice", "format": "in vivo", "details": "ABM300 10 mg/kg, OLA 1 mg/kg i.p.", "method": "(§1) Pre-Pulse Inhibition (PPI): PPI of the acoustic startle response was measured on day 3, via SR-LAB equipment and software from San Diego Instruments. Accelerometers were calibrated to 700±5 mV and output voltages were amplified and analyzed for voltage changes using SR Analysis (San Diego Instruments, San Diego, CA, USA), and exported as an excel file. Background white noise was maintained at 65dB. PPI was measured in a 30-min test with 80 randomized trials of: (1) 10 trials pulse alone (2) 10 trials pre-pulse alone (for each pre-pulse), (3) 10 trials pre-pulse plus pulse (for each pre-pulse), and (4) 10 trials no pulse. 5 pulse alone trials were performed before and after the 80 trials, totaling 90 trials per run. The pre-pulse (4dB, 8dB, or 16dB) was presented 100ms prior to the startle pulse […]. The inter-stimulus interval (ISI) was randomized between 5 and 20s. Experimental mice were placed in a cylindrical tube on a platform in a soundproof chamber. Mice were allowed to acclimatize in the chamber and to the background noise for 300s, followed by 5 consecutive pulse alone trials, then by 80 randomized trials (as described above) and then 5 consecutive pulse alone trials. Pre-pulse inhibition was measured as a decrease in the amplitude of startle response to a 100dB acoustic startle pulse, following each pre-pulse (4dB, 8dB and 16dB)."}, "Male Sprague Dawley rats [1]": {"tested_on": "Male Sprague Dawley rats", "details": "10 mg/kg i.p.", "method": "(§2) Male Sprague Dawley rats (PD>63) were trained on a CAR protocol and responding following drug exposure was determined. […] Animals were trained to learn a house light (CS) as predictive of an avoidable 0.6mA scrambled foot shock (US). Each session consisted of 50 trials and animals avoided >70% of trials on the final acquisition session were tested for CAR during vehicle baseline, drug exposure, and re-emergence. In addition to CAR testing, both temperature and catalepsy were recorded in these animals (measure of potential CB1R agonism). Temperature: recorded on first day of drug exposure, prior to injection and 60-90-min. following drug exposure."}, "CB1R [2]": {"target": "T1, CB1R (Homo sapiens, UniProt P21554)", "T1 sequence (P21554 whole entry)": "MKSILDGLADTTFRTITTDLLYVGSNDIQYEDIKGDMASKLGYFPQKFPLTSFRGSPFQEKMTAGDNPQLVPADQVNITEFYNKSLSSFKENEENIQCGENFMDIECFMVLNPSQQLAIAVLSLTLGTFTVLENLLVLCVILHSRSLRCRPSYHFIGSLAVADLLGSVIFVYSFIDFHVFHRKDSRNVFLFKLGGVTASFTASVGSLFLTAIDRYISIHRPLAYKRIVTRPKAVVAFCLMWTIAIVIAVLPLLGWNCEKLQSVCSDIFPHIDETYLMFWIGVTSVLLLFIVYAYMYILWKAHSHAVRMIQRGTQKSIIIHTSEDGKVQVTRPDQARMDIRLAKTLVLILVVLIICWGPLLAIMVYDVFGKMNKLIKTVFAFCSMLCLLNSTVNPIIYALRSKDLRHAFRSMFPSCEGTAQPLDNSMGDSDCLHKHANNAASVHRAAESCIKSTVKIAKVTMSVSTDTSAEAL", "assay": "cell-based"}, "CB1R [3]": {"target": "T1, CB1R", "assay": "Equilibrium binding assay with [3H]CP55,940 in hCB1R CHO cells", "method": "Non-specific binding was defined in the presence of 10 µM WIN55,212-2.\nRadioactivity was quantitated by liquid scintillation spectrometry. Specific binding was defined as the difference between the binding that occurred in the presence and absence of 10 µM of WIN55212. Data were analyzed by nonlinear regression analysis of allosteric modulator titration model using GraphPad Prism 8.0 (GraphPad, San Diego, CA)."}, "DATKO mice": {"tested_on": "DATKO mice", "assay": "Pre-pulse inhibition in DATKO mice", "format": "in vivo", "details": "10 mg/kg i.p.", "method": "as §1"}, "Dopamine D2": {"target": "Dopamine D2 (Homo sapiens, UniProt P14416)", "sequence (P14416 other isoform, or with tags, fused parts or gaps)": "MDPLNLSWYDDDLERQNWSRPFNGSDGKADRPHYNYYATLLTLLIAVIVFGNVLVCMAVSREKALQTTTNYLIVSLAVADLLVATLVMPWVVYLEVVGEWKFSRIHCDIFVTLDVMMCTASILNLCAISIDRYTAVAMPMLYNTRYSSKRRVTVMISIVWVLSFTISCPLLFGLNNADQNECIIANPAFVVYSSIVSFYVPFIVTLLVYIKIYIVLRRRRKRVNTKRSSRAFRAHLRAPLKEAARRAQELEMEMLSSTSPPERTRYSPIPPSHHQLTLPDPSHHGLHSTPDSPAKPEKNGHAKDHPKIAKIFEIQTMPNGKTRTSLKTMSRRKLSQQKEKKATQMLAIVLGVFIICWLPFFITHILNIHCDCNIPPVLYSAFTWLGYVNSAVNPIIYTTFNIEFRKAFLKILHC", "assay": "SafetyScreen44 panel: Dopamine D2", "format": "binding", "details": "1 µM", "method": "(§3) The screen assesses the selectivity of the compound on a diverse panel of targets that includes GPCRs, drug transporters, ion channels, nuclear receptors, kinases, and other non-kinase enzymes. The screen employs radioligand binding or enzyme assays for these 44 targets.\n(§4) For receptor assays, binding was calculated as percent inhibition of the binding of a radioactively labeled ligand specific for each target. For enzyme assays, the inhibition effect was calculated as percent inhibition of control enzyme activity. Tests were performed in duplicate, and results are averages of those two tests. See https://www.eurofinsdiscoveryservices.com."}, "in vitro": {"assay": "in vitro", "format": "in vitro ADME, rat", "details": "pH 7.4", "method": "Microsomal stability assays were conducted by Cyprotex Ltd (Macclesfield, UK).\nThe study of drug stability in the presence of liver microsomes is accepted as a valuable model for permitting rapid prediction of in vivo drug stability (see Kerns & Di, 2008). Microsomal stability studies were performed by Cyprotex Ltd (Macclesfield, UK). […] Microsomes (final protein concentration 0.5 mg/mL), 0.1 M phosphate buffer pH 7.4, and test compound (final concentration 3 μM; diluted from 10 mM stock solution to give a final DMSO concentration of 0.25%) were incubated at 37°C prior to the addition of NADPH (final concentration 1 mM) to initiate the reaction with a final incubation volume of 25 µL. A control incubation was included for each compound tested, where 0.1 M phosphate buffer pH 7.4 was added instead of NADPH. The control compounds testosterone and 7-hydroxycoumarin were included in each experiment and all incubations were performed singularly for each compound. […] Following protein precipitation, the sample supernatants were combined in cassettes of up to 4 compounds and analyzed using standard LC-MS/MS conditions. From a plot of the natural logarithm of the peak area ratio (i.e., the ratio of compound peak area: internal standard peak area) against time, the gradient of the line was determined. Subsequently, half-life and intrinsic clearance were calculated using the equations below: […]"}, "5HT2B": {"target": "T2, 5HT2B (Homo sapiens, UniProt P41595)", "T2 construct": "Eurofins Cerep", "T2 sequence (P41595 whole entry)": "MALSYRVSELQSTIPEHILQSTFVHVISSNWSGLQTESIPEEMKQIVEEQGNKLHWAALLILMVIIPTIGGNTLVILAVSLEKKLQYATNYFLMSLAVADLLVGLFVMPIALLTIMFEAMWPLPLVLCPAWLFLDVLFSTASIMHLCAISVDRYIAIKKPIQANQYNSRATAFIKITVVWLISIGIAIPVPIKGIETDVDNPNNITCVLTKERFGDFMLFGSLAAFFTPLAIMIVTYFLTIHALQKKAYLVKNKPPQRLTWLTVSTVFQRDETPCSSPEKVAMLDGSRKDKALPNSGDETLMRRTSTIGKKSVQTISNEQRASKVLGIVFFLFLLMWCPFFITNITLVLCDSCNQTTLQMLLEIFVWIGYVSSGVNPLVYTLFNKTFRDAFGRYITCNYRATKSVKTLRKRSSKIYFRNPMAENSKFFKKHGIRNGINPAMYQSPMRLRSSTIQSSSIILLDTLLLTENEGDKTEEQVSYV", "assay": "SafetyScreen44 panel: 5HT2B", "format": "binding", "details": "1 µM", "source_text": "See https://www.eurofinsdiscoveryservices.com."}, "Male Sprague Dawley rats [4]": {"tested_on": "Male Sprague Dawley rats", "assay": "Conditioned avoidance response (CAR)", "format": "in vivo", "details": "rat, in vivo", "method": "as §2"}, "5HT1B": {"target": "T3, 5HT1B (Rattus norvegicus, UniProt P28564)", "T3 construct": "Eurofins Cerep", "T3 sequence (P28564 whole entry)": "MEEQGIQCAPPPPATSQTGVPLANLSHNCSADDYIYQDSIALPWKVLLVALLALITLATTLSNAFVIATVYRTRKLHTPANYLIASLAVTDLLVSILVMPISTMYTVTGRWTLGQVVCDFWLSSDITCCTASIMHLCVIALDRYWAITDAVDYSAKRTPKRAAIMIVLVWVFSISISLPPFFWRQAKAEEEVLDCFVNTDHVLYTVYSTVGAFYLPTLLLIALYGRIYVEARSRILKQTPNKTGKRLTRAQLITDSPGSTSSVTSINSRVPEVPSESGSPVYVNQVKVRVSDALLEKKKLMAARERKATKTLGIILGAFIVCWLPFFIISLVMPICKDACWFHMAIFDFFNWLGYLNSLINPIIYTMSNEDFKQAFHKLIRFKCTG", "assay": "SafetyScreen44 panel: 5HT1B", "format": "binding", "details": "1 µM", "method": "as §3, §4"}, "CB2": {"target": "T4, CB2 (Homo sapiens, UniProt P34972)", "T4 construct": "Eurofins Cerep", "T4 sequence (P34972 whole entry)": "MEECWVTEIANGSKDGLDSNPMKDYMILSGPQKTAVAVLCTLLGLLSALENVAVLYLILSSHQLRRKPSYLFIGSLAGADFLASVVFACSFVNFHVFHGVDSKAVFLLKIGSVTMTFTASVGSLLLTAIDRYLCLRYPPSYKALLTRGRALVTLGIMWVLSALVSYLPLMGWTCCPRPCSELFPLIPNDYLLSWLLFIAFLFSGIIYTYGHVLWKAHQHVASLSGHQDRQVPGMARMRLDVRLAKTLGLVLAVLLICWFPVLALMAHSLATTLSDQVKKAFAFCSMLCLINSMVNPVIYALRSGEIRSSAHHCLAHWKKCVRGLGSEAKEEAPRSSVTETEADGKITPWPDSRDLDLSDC", "assay": "SafetyScreen44 panel: CB2", "format": "binding", "details": "1 µM", "method": "as §3, §4"}},
  "note": "Like-named read-outs stand apart in the source and are kept apart here.",
  "data": [
    {"compound": "CCc1c(-c2nnc(Nc3ccccc3)o2)[nH]c2ccc(Cl)cc12", "note": "[ABM300, 5-(5-chloro-3-ethyl-1H-indol-2-yl)-N-phenyl-1,3,4-oxadiazol-2-amine]", "values": [
      {"measurement": "acoustic startle response", "setting": "GluN1KD mice", "result": "did not respond"},
      {"measurement": "sensorimotor gating deficits (PPI; 4, 8, 16 dB)", "setting": "GluN1KD mice", "result": "did not respond"},
      {"measurement": "catalepsy", "setting": "Male Sprague Dawley rats [1]", "result": "did not induce catalepsy"},
      {"measurement": "changes in body temperature", "setting": "Male Sprague Dawley rats [1]", "result": "did not induce catalepsy, or changes in body temperature"},
      {"measurement": "IC50", "setting": "CB1R [2]; read-out: IC50, reduction in ERK1/2 phosphorylation", "result": 0.047, "unit": "µM"},
      {"measurement": "IC50", "setting": "CB1R [2]; read-out: pIC50, reduction in ERK1/2 phosphorylation (converted)", "result": 0.0417, "unit": "µM"},
      {"measurement": "Kb", "setting": "CB1R [3]", "result": 0.178, "unit": "µM"},
      {"measurement": "EC50", "setting": "CB1R [3]; EC50, increase in specific binding of [3H]CP55,940, hCB1R CHO, [3H]CP55,940 0.5 nM", "result": 0.132, "unit": "µM"},
      {"measurement": "Emax, increase in specific binding of [3H]CP55,940", "setting": "CB1R [3]; hCB1R CHO, [3H]CP55,940 0.5 nM", "result": "328 ± 47", "unit": "%"},
      {"measurement": "EC50", "setting": "CB1R [3]; pEC50, increase in specific binding of [3H]CP55,940, hCB1R CHO, [3H]CP55,940 0.5 nM", "result": 0.126, "unit": "µM"},
      {"measurement": "sensorimotor gating deficits (PPI)", "setting": "DATKO mice", "result": "rescue of the PPI deficit at the 16 dB pre-pulse interval"},
      {"measurement": "acoustic startle response", "setting": "DATKO mice; data not shown", "result": "Neither genotype, nor treatment with ABM300, had an effect"},
      {"measurement": "binding to Dopamine D2", "setting": "Dopamine D2", "result": "did not display any significant binding"},
      {"measurement": "half-life at 3 µM", "setting": "in vitro; microsomes, rat liver microsomal preparations", "result": 1.83, "unit": "h"},
      {"measurement": "microsomal CLint at 3 µM", "setting": "in vitro; rat liver microsomes", "result": "12.6 ± 2", "unit": "µL/min/mg"},
      {"measurement": "binding to 5HT2B", "setting": "5HT2B", "result": "did not display any significant binding"},
      {"measurement": "avoidance behavior in CAR", "setting": "Male Sprague Dawley rats [4]", "result": "no effect"},
      {"measurement": "binding to 5HT1B", "setting": "5HT1B", "result": "did not display any significant binding"},
      {"measurement": "binding to CB2", "setting": "CB2", "result": "did not display any significant binding"}
    ]}
  ]
}
